According to US12404283B2, “c-MYC mRNA translation modulators and uses thereof in the treatment of cancer” (Anima Biotech Inc., priority 2022, dated 2025):

Test system: c-Myc
Assay: c-Myc immunofluorescence assay
Format: cell-based, human
Details: A549 cells, 24 hours treatment, anti-c-Myc immunofluorescence
How it was run: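 A549 cells grown 48 h, exposed 24 h to rising compound concentrations, then fixed, permeabilised and stained for c-Myc plus DAPI. Nuclear-segmented c-Myc fluorescence quantified by high-content imaging at 20×; EC50 from logistic dose–response fits.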

| SMILES | Myc Efficacy (−LogEC50) |
| --- | --- |
| CNC(=O)c1ccc(-c2cn3c(n2)sc2cc(C(=O)N[C@H]4CN5CCC4CC5)ccc23)cc1 [compound 231, (R)-2-(4-(methylcarbamoyl)phenyl)-N-(quinuelidin-3-yl)benzo[d]imidazo[2,1-b]thiazole-7-carboxamide] | − (− ≤3) |
| CNC(=O)c1ccc(-c2cn3c(n2)sc2cc(C(=O)NCCCn4nc(C)cc4C)ccc23)cc1 [compound 232, N-(3-(3,5-dimethyl-1H-pyrazol-1-yl)propyl)-2-(4-(methylcarbamoyl)phenyl) benzo[d]imidazo[2,1-b]thiazole-7-carboxamide] | − (− ≤3) |
| CCN1CCC(CNC(=O)c2ccc3c(c2)sc2nc(-c4ccc(C(=O)NC)cc4)cn23)C1 (stereo not drawn) [compound 233, N-((1-ethylpyrrolidin-3-yl)methyl)-2-(4-(methylcarbamoyl)phenyl) benzo[d]imidazo[2,1-b]thiazole-7-carboxamide] | − (− ≤3) |
| CNC(=O)c1ccc(-c2cn3c(n2)sc2cc(C(=O)NC(C)C4CCOCC4)ccc23)cc1 (stereo not drawn) [compound 234, 2-(4-(methylcarbamoyl)phenyl)-N-(1-(tetrahydro-2H-pyran-4-yl)ethyl)benzo[d]imidazo [2,1-b]thiazole-7-carboxamide] | + (+ >3 and <5) |
| CNC(=O)c1ccc(-c2cn3c(n2)sc2cc(C(=O)NCCCn4ccnc4)ccc23)cc1 [compound 235, N-(3-(1H-imidazol-1-yl)propyl)-2-(4-(methylcarbamoyl)phenyl) benzo[d]imidazo[2,1-b]thiazole-7-carboxamide] | + (+ >3 and <5) |
| CNC(=O)c1ccc(-c2cn3c(n2)sc2cc(C(=O)NC4CC(=O)N(C)C4)ccc23)cc1 (stereo not drawn) [compound 236, N-(1-methyl-5-oxopyrrolidin-3-yl)-2-(4-(methylcarbamoyl)phenyl) benzo[d]imidazo[2,1-b]thiazole-7-carboxamide] | − (− ≤3) |
| CNC(=O)c1ccc(-c2cn3c(n2)sc2cc(C(=O)NC4(CO)CCOCC4)ccc23)cc1 [compound 237, N-(4-(hydroxymethyl)tetrahydro-2H-pyran-4-yl)-2-(4-(methylcarbamoyl)phenyl) benzo[d]imidazo[2,1-b]thiazole-7-carboxamide] | − (− ≤3) |
| CNC(=O)c1ccc(-c2cn3c(n2)sc2cc(C(=O)N[C@H]4[C@H]5CN[C@@H]4C5)ccc23)cc1 [compound 238, N-((1R,4R,5S)-2-azabicyclo[2.1.1]hexan-5-(methylcarbamoyl)phenyl) benzo[d]imidazo[2,1-b]thiazole-7-carboxamide] | − (− ≤3) |
| CNC(=O)c1ccc(-c2cn3c(n2)sc2cc(C(=O)NC4CC4OC)ccc23)cc1 (stereo not drawn) [compound 240, N-(2-methoxycyclopropyl)-2-(4-(methylcarbamoyl)phenyl) benzo[d]imidazo[2,1-b] thiazole-7-carboxamide] | + (+ >3 and <5) |
| CNC(=O)c1ccc(-c2cn3c(n2)sc2cc(C(=O)NC4CC5(CNC5)C4)ccc23)cc1 [compound 241, 2-(4-(methylcarbamoyl)phenyl)-N-(2-azaspiro[3.3]heptan-6-yl)benzo[d]imidazo[2,1-b] thiazole-7-carboxamide] | + (+ >3 and <5) |
| CC[C@H](NC(=O)c1ccc2c(c1)sc1nc(-c3ccc(C(=O)NC)cc3)cn12)c1ccnn1C [compound 242, (S)-N-(1-(1-methyl-1H-pyrazol-5-yl)propyl)-2-(4-(methylcarbamoyl)phenyl) benzo[d]imidazo[2,1-b] thiazole-7-carboxamide] | + (+ >3 and <5) |
| CCc1nccn1CCNC(=O)c1ccc2c(c1)sc1nc(-c3ccc(C(=O)NC)cc3)cn12 [compound 243, N-(2-(2-ethyl-1H-imidazol-1-yl)ethyl)-2-(4-(methylcarbamoyl)phenyl) benzo[d]imidazo[2,1-b] thiazole-7-carboxamide] | + (+ >3 and <5) |
